The text below walks through data of BigSolDB 2.1.

For the data set the following is noted: in n-octanol.

Take `COc1cnc(NS(=O)(=O)c2ccc(N)cc2)nc1`: the solubility (mole fraction) (as a rule, solubility expressed as the solute's share of all molecules) was 8.8e-05 (298.15 K); 9.42e-05 (303.15 K); 0.000101 (308.15 K); 0.000108 (313.15 K); 0.000115 (318.15 K); 0.000123 (323.15 K). Further, the solubility (mole fraction) (328.15 K) was 0.000132 and the solubility (mole fraction) (333.15 K) worked out at 0.000141.
As for `COc1cc(NS(=O)(=O)c2ccc(N)cc2)ncn1`, the solubility (mole fraction) reads like this: (303.15 K) 8.68e-05; (308.15 K) 9.52e-05; (313.15 K) 0.000104; (323.15 K) 0.00012; (328.15 K) 0.000129; (333.15 K) 0.000136.
Consider `COc1cc(NS(=O)(=O)c2ccc(N)cc2)nc(OC)n1`, for which the solubility (mole fraction) is, setting by setting: (298.15 K) 0.000167; (303.15 K) 0.00018; (308.15 K) 0.000194; (313.15 K) 0.000213; (318.15 K) 0.000235; (323.15 K) 0.000261. This compound also had a solubility (mole fraction) (328.15 K) of 0.000294 and a solubility (mole fraction) (333.15 K) of 0.000332.
